Key:
[1] = test system: PARP; test: Western blot analysis of PARP protein in DU145; format: cell-based, human; details: DU145, 0, 20 and 40 mM, 72 h
Protocol: (§1) After 0, 20 and 40 mM of D-allose treatments for 72 h, DU145 cell line (1×10^6 cells in triplicate culture plates) was harvested into cell lysis buffer (Cell Signaling, Danvers, Mass., USA) supplemented with 1 mM PMSF. The cells were then sonicated, centrifuged and protein concentration was measured by Bradford assay with the Bio-Rad protein assay solution using bovine serum albumin (BSA) as standard. Proteins (30 μg) were separated on a 12.5% SDS-PAGE under reducing conditions and transferred onto a PVDF membrane (Santa Cruz Biotechnology, Santa Cruz, Calif., USA). Prestained protein marker, broad range: 6-175 kDa (New England Biolabs Inc., Ipswich, Mass., USA) run in parallel for detection of the molecular weights of the proteins. Membrane was blocked with 5% (w/v) skimmed milk in order to reduce non-specific binding and immunoblotting was performed using rabbit derived anti-Bcl-2, anti-Bax, anti-Caspase 3 and anti-PARP antibodies (1:500; Santa Cruz Biotechnology, Santa Cruz, Calif., USA). […] Membrane was probed with a goat derived horseradish peroxidase-conjugated anti-rabbit IgG (1:1000; Santa Cruz Biotechnology, Santa Cruz, Calif., USA), and proteins were detected by the enhanced chemiluminescence (ECL) detection system according to the vendor's protocol (Amersham Biosciences, Piscataway, N.J., USA) followed by X-ray exposure. […]

[2] = test system: DU145 cell line; test: Mitochondrial Δψm by JC-1, flow cytometry; format: cell-based, human; details: DU145, 20 and 40 mM, 24, 48 and 72 h
Protocol: Mitochondrial Δψm was measured by JC-1 mitochondrial membrane potential detection kit (Biotium Inc, Hayward, Calif., USA) according to the manufacturer's protocol. Briefly, DU145 cell line (1×10^6 cells in triplicate culture plates) was harvested after treatments with 0, 20 and 40 mM of D-allose for up to 72 h as mentioned above, stained with […] JC-1 reagent at 37° C. for 15 min and resuspended twice in 1× assay buffer. Changes in mitochondrial Δψm were measured at the single cell level by FACSCalibur flow cytometer (Becton Dickinson, San Jose, Calif., USA) under the following conditions: FL1, 511 volts; FL2, 389 volts; FL1-10.5% FL2; FL2-25.9% FL1; 488 nm argon excitation laser and 585 nm band pass filter. In total 10,000 cells were acquired for analysis by CellQuest software, version 3.0 (Becton Dickinson, San Jose, Calif., USA), and the quantification of cells with low mitochondrial Δψm as the percentage of total cell population was performed. Further, the DU145 cell line was seeded onto chamber slides with 1×10^5 cells/chamber in 500 μl of complete culture medium containing 0, 20 and 40 mM of D-allose for 72 h, permeabilized with 0.1% Triton, stained with 1×JC-1 reagent in dark, mounted with Prolong Antifade reagent (Molecular Probes, Eugene, Oreg., USA), and images (JC-1, green) were acquired by use of a fluorescence microscope (Axioplan 2, Carl Zeiss, Germany).

[3] = test system: DU145 cell line; test: Cell viability / cell growth, MTT assay; format: cell-based, human
Protocol: DU145 (human HRPC cell line, derived from a patient with brain metastasis) and PrEC (human normal prostate epithelial cell line) cell lines were obtained from Korea Cell Line Bank (KCLB, Seoul, South Korea). DU145 and PrEC cell lines were grown in triplicate culture plates containing RPMI-1640 (HyClone, Logan, Utah, USA) and Dulbecco's Modified Eagle's Medium (HyClone, Logan, Utah, USA) respectively, and kept in a humidified atmosphere containing 5% CO2 at 37° C. for 72 h. The media were supplemented with 10% heat-inactivated fetal bovine serum (HyClone, Logan, Utah, USA), 1% antibio-antimicotic solution containing 10,000 units/ml of penicillin and 10 mg/ml of streptomycin (HyClone, Logan, Utah, USA), HEPES, sodium bicarbonate, p-aminobenzoic acid and insulin (complete culture media). D-Allose was purchased from Sigma (St. Louis, Mo., USA) and dissolved at a concentration of 1 M in sterile phosphate-buffered saline (PBS), and was further sterilized by filtration. To examine the dose- and time-dependent effects, the cell lines (70-80% confluent) were treated with 0-40 mM of D-allose for up to 72 h, whereas without D-allose treated cell lines (0 mM) were considered as control. DU145 cell line was also treated with 0-40 mM of D-glucose. All the other chemicals used in the work were procured from Sigma (St. Louis, Mo., USA), unless otherwise specified.
(§2) The logarithmic growth phase of DU145 and PrEC cell lines were taken for growth assay using 3-[4,5-dimethylthiazol-2-yl]-2,5-diphenyl tetrazolium bromide (MTT). […] After incubation for the specified time at 37° C. in a humidified 5% CO2 incubator, cell viability was determined. […] To achieve solubilization of formazan crystal formed in viable cells, DMSO was added to each well, and the absorbance was recorded on a microplate reader at 595 nm wavelength. The effect of sugars on growth inhibition was assessed as percent cell viability where control cells were taken as 100% viable.

[4] = test system: caspase 3; test: Western blot analysis of caspase 3 protein in DU145; format: cell-based, human; details: DU145, 0, 20 and 40 mM, 72 h
Protocol: as §1

[5] = test system: PrEC cell line; test: Cell viability / cell growth, MTT assay; format: cell-based; details: human NPE cell line PrEC, 0-40 mM
Protocol: DU145 (human HRPC cell line, derived from a patient with brain metastasis) and PrEC (human normal prostate epithelial cell line) cell lines were obtained from Korea Cell Line Bank (KCLB, Seoul, South Korea). DU145 and PrEC cell lines were grown in triplicate culture plates containing RPMI-1640 (HyClone, Logan, Utah, USA) and Dulbecco's Modified Eagle's Medium (HyClone, Logan, Utah, USA) respectively, and kept in a humidified atmosphere containing 5% CO2 at 37° C. for 72 h. The media were supplemented with 10% heat-inactivated fetal bovine serum (HyClone, Logan, Utah, USA), 1% antibio-antimicotic solution containing 10,000 units/ml of penicillin and 10 mg/ml of streptomycin (HyClone, Logan, Utah, USA), HEPES, sodium bicarbonate, p-aminobenzoic acid and insulin (complete culture media). […]
as §2

[6] = test system: Bcl-2; test: Western blot analysis of Bcl-2 protein in DU145; format: cell-based, human; details: DU145, 20 and 40 mM, 72 h
Protocol: as §1

O=C[C@H](O)[C@H](O)[C@H](O)[C@H](O)CO [D-allose]
cleaved PARP product [1]: concomitant increase | full length PARP protein expression [1]: remarkable dose-dependent decrease | cells with low mitochondrial Δψm [2]: appearance of a remarkable subpopulation of cells with low mitochondrial Δψm in a dose- and time-dependent manner | cell growth (MTT assay) ([3]; DU145, 0-40 mM, compared to control): significant dose-dependent inhibition of cell growth | time dependence of cell growth inhibition (MTT assay) ([3]; DU145, 24, 48 and 72 h): time-dependent inhibition of DU145 cell growth, which was more pronounced at 72 h post-treatment | cleaved caspase 3 product [4]: concomitant increase | full length caspase 3 protein expression [4]: remarkable dose-dependent decrease | effect on growth of PrEC cell line [5]: no remarkable effect | Bcl-2 protein expression [6]: significantly decreased

From patent publication US20110071094A1, “(D)-ALLOSE INDUCING PROGRAMMED CELL DEATH IN HORMONE REFRACTORY PROSTATE CANCER LINES” (INDUSTRY-ACADEMIC COOPERATION FOUDATION, GYEONGSANG …, priority 2008, published 2011)
